We go through one compound from US20170281470A1, “METHOD AND APPARATUS FOR DRY GRANULATION” (ATACAMA LABS OY, priority 2006, published 2017).

This series can be described thus: Agglomeration during storage at room temperature and ambient humidity. The class given is physicochemical. The settings on record: stored in room temperature and ambient humidity.

On to `CN(C)C(=N)N=C(N)N` [100% metformin fine powder, metformin], for which the agglomeration during storage entry was “heavy agglomeration”.
